Results as given in the SangsterLogP compilation.

Point of comparison: `CCC(C)NC(=O)N1C(=O)N(C)CC1O` (stereo unspecified), logP 1.28. Against it:
- CCCCCNC(=O)N1C(=O)N(C)CC1O (stereo unspecified) — higher, 1.75
- CC1CCC(NC(=O)N2C(=O)N(C)CC2O)CC1 (stereo unspecified) — higher, 2.41
- CC(C)NC(=O)N1C(=O)N(C)CC1O (stereo unspecified) — lower, 0.96
- CC(C)CNC(=O)N1C(=O)N(C)CC1O (stereo unspecified) — within 0.2 log units, 1.32
- CN1CC(O)N(C(=O)NC2CCCCCC2)C1=O (stereo unspecified) — higher, 2.29
- CN1CC(O)N(C(=O)NC2CCCCC2)C1=O (stereo unspecified) — higher, 1.87
- CCCCNC(=O)N1C(=O)N(C)CC1O (stereo unspecified) — within 0.2 log units, 1.38
- CCCNC(=O)N1C(=O)N(C)CC1O (stereo unspecified) — lower, 0.99
- CN1CC(O)N(C(=O)NC2CCCC2)C1=O (stereo unspecified) — within 0.2 log units, 1.47
- CCCCCCNC(=O)N1C(=O)N(C)CC1O (stereo unspecified) — higher, 2.39
- CCCCCCCCNC(=O)N1C(=O)N(C)CC1O (stereo unspecified) — higher, 3.46
- CC1CCCCC1NC(=O)N1C(=O)N(C)CC1O (stereo unspecified) — higher, 2.2
- CN1CC(O)N(C(=O)NC(C)(C)C)C1=O (stereo unspecified) — within 0.2 log units, 1.38
- CN1CC(O)N(C(=O)NCCCl)C1=O (stereo unspecified) — lower, 0.71
- CN1CC(O)N(C(=O)Nc2ccccc2)C1=O (stereo unspecified) — within 0.2 log units, 1.44
